Results from ChEMBL document CHEMBL3430912, “GSK Tres Cantos Anti-Kinetoplastid Screening (TCAKS) Data”.
pIC50: −log10 of the molar value.

Experiments:
Trypanosoma cruzi [1] = assay: GSK_TCAKS: pIC50 Trypanosoma cruzi viability assay using beta-GAL activity. This assay was run at single shot at 5uM compound concentration per well. The biological reagents consisted of NIH-3T3 host cells and trypomastigotes parasitic cells; both cell types were set to a 3.3 * 10^5 cells/mL dilution in assay DMEM by means of a CASY cell counter device using a 60um capillary. 6 uL of the mixture were dispensed per well (about 1 * 10^3 host-cells and 1 * 10^3 parasites) with a Multidrop Combi dispenser. […] In all wells, the percentage of DMSO never exceeded 0.5%. Plates incubated for four days at 37C, 5% CO2. The substrate used for the assay fluorescence intensity (FLINT) readout was resorufin-beta-D-galactopiranoside (Sigma-Aldrich) at 5uM per well. It was diluted in PBS supplemented with the soft detergent Igepal (Fluka).; type: functional, organism-based, Mus musculus; conditions: Tulahuen, NIH3T3
Trypanosoma cruzi [2] = assay: (§1) GSK_TCAKS: pIC50 Trypanosoma cruzi Imaging: Infected Cells. […] Cells were then washed once with PBS before infection. T. cruzi trypomastigotes, collected at days 5 to 8 after infection from LLC-MK2 parasite infected cultures, were allowed to swim out for 4h at 37C from a centrifuged pellet (2,500 rpm/10 min/room temperature). Trypomastigotes were then collected and counted in a CASY Cell Counter. Trypomastigotes, in supplemented DMEM, were added to H9c2 cultures in a multiplicity of infection of 1 and incubated for 18 h. Cells were washed once with PBS before incubation of the infected H9c2 monolayer with trypsin (Life-Technologies) to detach cells from the flask. Cells were counted in a CASY Cell Counter using a 150 um capillary and their density set at 5 * 10^4 cells per mL in supplemented assay DMEM. Infected H9c2 were dispensed into 384-well poly-lysine coated assay plates at 50uL per well using a Multidrop Combi dispenser. After seeding them, the plates were incubated at 37C, 5% CO2 for 72h. Cultures were then fixed and stained by addition of 50 uL of a solution containing 8% formaldehyde and 4 uM DRAQ5 DNA dye (BioStatus, UK) per well. […] Five images were collected per well for reliable statistical analysis. Automated image analysis was performed with a script developed on Acapella High Content Imaging and Analysis Software (PerkinElmer). Output: percentage of infected cells per well as a second infection marker.; type: functional, organism-based, Rattus norvegicus; conditions: H9c2, 4 h
Trypanosoma cruzi [3] = assay: GSK_TCAKS: pIC50 Trypanosoma cruzi Imaging: Amastigotes/Cell. […] Cells were then washed once with PBS before infection. T. cruzi trypomastigotes, collected at days 5 to 8 after infection from LLC-MK2 parasite infected cultures, were allowed to swim out for 4h at 37C from a centrifuged pellet (2,500 rpm/10 min/room temperature). Trypomastigotes were then collected and counted in a CASY Cell Counter. Trypomastigotes, in supplemented DMEM, were added to H9c2 cultures in a multiplicity of infection of 1 and incubated for 18 h. Cells were washed once with PBS before incubation of the infected H9c2 monolayer with trypsin (Life-Technologies) to detach cells from the flask. Cells were counted in a CASY Cell Counter using a 150 um capillary and their density set at 5 * 10^4 cells per mL in supplemented assay DMEM. Infected H9c2 were dispensed into 384-well poly-lysine coated assay plates at 50uL per well using a Multidrop Combi dispenser. After seeding them, the plates were incubated at 37C, 5% CO2 for 72h. Cultures were then fixed and stained by addition of 50 uL of a solution containing 8% formaldehyde and 4 uM DRAQ5 DNA dye (BioStatus, UK) per well. […] Five images were collected per well for reliable statistical analysis. Automated image analysis was performed with a script developed on Acapella High Content Imaging and Analysis Software (PerkinElmer). Output: number of amastigotes per cell as infection level measurement.; type: functional, organism-based, Rattus norvegicus; conditions: H9c2, 4 h
Trypanosoma cruzi [4] = assay: as §1, with “H2C9” for “Trypanosoma cruzi”, “H9c2 Host Cardiomyocytes.” for “Infected Cells.”, “Number” for “percentage”, “H9c2 Host Cardiomyocytes nuclei to determine drug-related cytotoxicity.” for “infected cells per well as a second infection marker.”; type: functional, organism-based, Rattus norvegicus; conditions: H9c2, 4 h
Leishmania donovani [5] = assay: GSK_TCAKS: pIC50 Leishmania donovani viability assay using fluorescence intensity. Assay plates (1536-well) were prepared by adding 30nL per well of compound. For single shot assay, the final compound concentration was 5uM. […] Briefly, eGFP LdBOB axenic amastigotes were harvested, fixed and counted in a CASY cell counter (Roche-Applied Science). A final concentration of 1.5 * 10^5 cells per well were prepared in amastigote media containing 500 U/mL penicillin/streptomycin (Invitrogen) and 6uL was dispensed to each experimental well using a Multidrop Combi dispenser (Thermo Scientific). 6uL of assay media was dispensed to control columns used as reference for 100% compound response. Following incubation for 72 h at 37C, 5% CO2, 2 uL of resazurin was added to each well at a final concentration of 0.5 mM in phosphate buffered saline (PBS) with IGEPAL (Sigma-Aldrich), 0.05% (v/v).; type: functional, organism-based
Leishmania donovani [6] = assay: GSK_TCAKS: pIC50 Leishmania donovani Imaging: Infected Macrophages. Assay plates (384-well) were prepared by adding 250nL of compound to each well. For single shot assay, the final compound concentration was 5 uM. […] Automated image analysis was performed with a script developed on Acapella High Content Imaging and Analysis Software (PerkinElmer). Output: Percent of infected macrophage cells were reported for each well.; type: functional, organism-based, Homo sapiens; conditions: THP-1
Leishmania donovani [7] = assay: GSK_TCAKS: pIC50 Leishmania donovani Imaging: Amastigotes/Macrophages. Assay plates (384-well) were prepared by adding 250nL of compound to each well. For single shot assay, the final compound concentration was 5 uM. […] Automated image analysis was performed with a script developed on Acapella High Content Imaging and Analysis Software (PerkinElmer). Output: Average number of amastigotes per macrophage cell were reported for each well.; type: functional, organism-based, Homo sapiens; conditions: THP-1
Leishmania donovani [8] = assay: GSK_TCAKS: pIC50 Leishmania donovani Imaging: THP-1 Host Macrophages. Assay plates (384-well) were prepared by adding 250nL of compound to each well. For single shot assay, the final compound concentration was 5 uM. […] Automated image analysis was performed with a script developed on Acapella High Content Imaging and Analysis Software (PerkinElmer). Output: THP-1 cell count were reported for each well.; type: functional, organism-based, Homo sapiens
[9] = system: Trypanosoma brucei brucei; assay: GSK_TCAKS: pIC50 Trypanosoma brucei viability assay using fluorescence intensity. Assay plates (1536-well) were prepared by dispensing 25nL of compound solution per well using an Echo acoustic dispenser (Labcyte).; type: functional, organism-based; conditions: Lister 427, 2 h
[10] = system: Trypanosoma brucei brucei; assay: GSK_TCAKS: pIC50 Trypanosoma brucei viability assay using luminiscence. Assay plates (1536-well) were prepared. T. brucei cultures were harvested and counted in a CASY cell counter. A parasite suspension was prepared at a final concentration of 5 * 10^4 cells/mL in complete HMI9 medium and 6uL was dispensed to all wells containing compounds using a Multidrop Combi dispenser. 6uL of HMI9 media with 0.4% DMSO were dispensed to control columns. Plates were incubated for 24 h at 37C, 5% CO2 then tempered for 10 min at room temperature. ATP content was quantified by adding 4 uL of CellTiter-Glo Reagent (Promega) according to the manufacturer's instructions. Luminescence was measured using a ViewLux.; type: functional, organism-based; conditions: Lister 427, CASY
[11] = GSK_TCAKS: pIC50 HepG2 human cell line viability assay using luminiscence. […] Seeding density was checked to ensure that new mono-layers were not more than 50% confluent at the time of harvesting. Cell suspension was added to 500 mL of the same medium at a final density of 1.2 * 10^5 cells/mL. This cell suspension was dispensed (25 uL, 3000 cells per well) into 384-well clear-bottom plates using a Multidrop Combi dispenser. Prior to addition of the cell suspension, the screening compounds (250 nL) were pre-dispensed into the plates with an Echo liquid handler. Plates were incubated for 48 h at 37C, 5% CO2. After incubation, plates equilibrated at room temperature for 30 min before proceeding to develop the luminescent signal. The signal developer, CellTiter-Glo Reagent, was allowed to equilibrate at room temperature for 30 min and added to the plates (25uL per well) using a Multidrop Combi dispenser. Plates were left for 10 min at room temperature for stabilization and then read using a ViewLux.; type: toxicity, cell-based
[12] = biological target: Sterol 14-alpha demethylase (Trypanosoma cruzi (strain CL Brener), UniProt Q7Z1V1); assay: GSK_TCAKS: pIC50 CYP51 from Trypanosoma cruzi.; type: functional
Sterol 14-alpha demethylase, sequence (Q7Z1V1 whole entry): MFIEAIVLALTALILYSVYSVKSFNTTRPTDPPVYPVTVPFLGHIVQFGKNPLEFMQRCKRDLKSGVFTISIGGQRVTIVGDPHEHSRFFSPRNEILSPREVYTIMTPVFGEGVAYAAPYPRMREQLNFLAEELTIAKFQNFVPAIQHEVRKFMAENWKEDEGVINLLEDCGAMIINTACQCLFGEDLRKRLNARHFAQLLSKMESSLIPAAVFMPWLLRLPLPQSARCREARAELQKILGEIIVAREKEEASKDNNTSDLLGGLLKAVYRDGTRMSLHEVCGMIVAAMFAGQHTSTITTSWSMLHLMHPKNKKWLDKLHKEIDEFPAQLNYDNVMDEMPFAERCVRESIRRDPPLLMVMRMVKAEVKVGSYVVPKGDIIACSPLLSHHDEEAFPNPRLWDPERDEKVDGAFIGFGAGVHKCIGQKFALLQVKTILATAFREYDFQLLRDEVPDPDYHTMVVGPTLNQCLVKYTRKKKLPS

SMILES | pIC50 (Trypanosoma cruzi [1]) | pIC50 (Trypanosoma cruzi [2]) | pIC50 (Trypanosoma cruzi [3]) | pIC50 (Trypanosoma cruzi [4]) | pIC50 (Leishmania donovani [5]) | pIC50 (Leishmania donovani [6]) | pIC50 (Leishmania donovani [7]) | pIC50 (Leishmania donovani [8]) | pIC50 [9] | pIC50 [10] | IC50 at 48 h [11] [nM] | pIC50 [12]
COc1ncc(-c2ccc3nccc(-c4ccncc4)c3c2)cc1NS(C)(=O)=O | 5.80 | 4.60 | 4.90 | 5.30 | 5.50 | 5.60 | 6.20 | 5.50 | 6.50 | 6.00 | > 100000 | 4.10
CCCCc1cc(Nc2cc(C3CCC3)[nH]n2)nc(N2CCC2C(N)=O)n1 (configuration not stated) | 5.50 | 5.50 | 5.80 | 6.10 | 5.40 | 5.70 | 6.20 | 6.00 | 6.90 | 6.80 | > 100000 | < 4.00
O=C(COc1nn(-c2ccccc2)c2ncccc12)NCc1ccccc1 | 4.90 | < 4.30 | 4.50 | < 4.30 | 6.40 | 6.50 | 7.10 | < 4.30 | < 4.40 | < 4.40 | > 100000 | 5.20
CC(=O)NCCNc1cc(-c2ccnc(Nc3cccc(Cl)c3)n2)ccn1 | 6.40 | 5.80 | 6.80 | 6.40 | 6.50 | 6.60 | 7.00 | 7.00 | 6.70 | 6.70 | 25100 | 5.30
CC(C)n1c(-c2nonc2N)nc2cccc(OCCN3CCCC3)c21 | 5.00 | 4.80 | 4.60 | 4.50 | < 4.30 | 4.50 | 4.70 | 4.50 | 6.10 | 6.10 | > 100000 | 4.40
Cc1ncsc1CNc1cnc(-c2ccc3c(c2)OCCO3)c(-c2cnn(C)c2)c1 | 4.90 | 4.40 | 4.70 | < 4.30 | 4.60 | 4.80 | 4.90 | 4.80 | 6.90 | 6.70 | > 100000 | 5.10
Cc1cc(Nc2cc(C3CC3)[nH]n2)nc(N2CCCC2)n1 | 7.10 | 7.00 | 7.10 | 6.60 | 6.10 | 6.80 | 7.30 | 6.90 | 7.30 | 7.20 | 31600 | < 4.00
Cc1cc(Nc2cc(C3CC3)[nH]n2)nc(N2CCC[C@H]2C(N)=O)n1 | 6.90 | 7.20 | 7.70 | 6.90 | 6.20 | 6.70 | 7.10 | 6.90 | 7.90 | 7.20 | > 100000 | < 4.00
CS(=O)(=O)N1CCC(Nc2ncc(Br)c(Nc3cccc(F)c3C(N)=O)n2)CC1 | 6.50 | 6.00 | 6.40 | 6.80 | 7.00 | 5.80 | 6.10 | 6.00 | 8.00 | 7.80 | > 100000 | < 4.00
NC(=O)c1cc(F)ccc1Nc1nc(N[C@H]2CC[C@H](O)CC2)ncc1Br | 5.60 | 5.70 | 6.10 | 6.30 | 5.80 | 6.10 | 6.20 | 6.40 | 7.10 | 6.50 | 50100 | 5.00
O=C(c1cccc(Nc2ncc(-c3ccc4c(c3)OCO4)cn2)c1)N1CCSC1 | 5.60 | 6.60 | 6.70 | 6.00 | 5.90 | 5.70 | 6.00 | 4.90 | 4.90 | < 4.40 | 10000 | 4.80
